Reference: US20220275037A1, “ß-AMYLOID CYCLIC RIBONUCLEIC ACID, POLYPEPTIDE, AND APPLICATION THEREOF” (priority 2019, published 2022)

Columns and labels:
APP mRNA = test: qRT-PCR of APP mRNA under ASO treatment; assay type: cell-based, human
Text: (§1) FIG. 7A. Schematic diagram of the designing of anti-circAβ-a-ASO. FIG. 7B. β-amyloid circular ribonucleic acid qRT-PCR results under ASO treatment; BE-Aβ represents the plasmid overexpressing circAβ-a using pCircRNA-BE vector; DMo-Aβ represents the overexpression using pCircRNA-DMo vector circAβ-a plasmid; Scr. ASO means negative control experiment ASO. FIG. 7C. qRT-PCR results of APP mRNA under ASO treatment.
(§2) In this example, the specific antisense oligonucleotide (ASO) against β-amyloid cyclic ribonucleic acid (circAβ) is used to inhibit and degrade circAβ to prevent and treat Alzheimer's disease. As shown in FIGS. 7A-7C, the level of the circular RNA in the cell is reduced by antisense oligonucleotides (anti-circAβ-a-ASO) against β-amyloid cyclic ribonucleic acid-a (circAβ-a). The APP mRNA was not affected (FIG. 7C). As shown in the figure, antisense oligonucleotides containing SEQ ID No. 41-57 anti-amyloid cyclic ribonucleic acid (circAβ). Antisense oligonucleotides recognize β-amyloid circular ribonucleic acid through base complementary pairing. Antisense oligonucleotides that bind target RNA can degrade target RNA by activating RNase H enzyme activity (FIGS. 7A-7C). Antisense oligonucleotides can also regulate (such as inhibit) protein translation by binding to target RNA.

circAβ-a = test: qRT-PCR of circAβ-a under ASO treatment; assay type: cell-based, human; conditions: cells overexpressing circAβ-a, vs Scr. ASO
Text: as §1, §2

“AAGCAGCTCATCTCCACCACAC (listed as DNA, chemistry not given here) [anti-circAβ-a-ASO, antisense oligonucleotide against circAβ-a]” was tested, and the “APP mRNA level” value (APP mRNA) was “not affected” and the “level of circAβ-a in cells” value (circAβ-a) was “reduced”.
